Data set [1] relates to HCT116 cells. The data set can be described thus: MTS assay cell viability after drug exposure, HCT116.
Procedure: (§4) Two colorectal cancer lines (HCT116 and DLD-1, obtained from ECACC) were exposed to a drug, and 48 hours and 72 hours after drug exposure, cell viability was determined by means of an MTS assay (CellTiter96™ AQueous One Solution Cell Proliferation Assay, Promega). Drug exposure conditions were as follows. 5-FU (single agent) was used at the following 11 concentrations: control (0 μM), 0.001 μM, 0.01 μM, 0.1 μM, 1 μM, 3 μM, 10 μM, 30 μM, 100 μM, 1,000 μM, and 10,000 μM. SN-38 (single agent) was used at the following 11 concentrations; control (0 nM), 0.001 nM, 0.01 nM, 0.1 nM, 0.3 nM, 1 nM, 3 nM, 10 nM, 30 nM, 100 nM, and 1,000 nM. In the case of 5-FU/SN-38 combination, 5-FU was used at 2 μM, 10 μM, 30 μM, and 100 μM (4 concentrations), and SN-38 was used at 0.001 nM, 0.01 nM, 0.1 nM, 0.3 nM, 1 nM, 3 nM, 10 nM, 30 nM, 100 nM, and 1,000 nM (10 concentrations); i.e., 40 concentrations were employed. […]
(§5) Sensitivity analysis was performed from viability data calculated from MTS assay results. The presence or absence of combined effect was determined through comparison of viability obtained by exposure to a combination with that obtained by exposure to a single agent at the same concentration as employed at the exposure to the combination.
Data set [2] relates to DLD-1 cells. The data set can be described thus: MTS assay cell viability after drug exposure, DLD-1. Background: Formazan colour is commonly taken as a measure of viable cells.
Procedure: as §4, §5
Data set [3] has as its system HCT116 cells. The data set can be described thus: SELDI-TOF MS intracellular protein expression after drug exposure, HCT116. In kind it is cell-based, human. The method, then: (§1) The 5-FU+SN-38 combination concentration was adjusted to the following four levels: 2 μM+10 nM, 2 μM+100 nM, 100 μM+10 nM, and 100 μM+100 nM, the 5-FU concentration (exposure to single agent) was adjusted to 2 μM and 100 μM, and the SN-38 concentration (exposure to single agent) was adjusted to 10 nM and 100 nM. In addition, the exposure test was conducted at a drug-free concentration (control). That is, nine concentrations in total were employed. Drug exposure time was adjusted to the following four periods of time: 0 hour (just before exposure), 4 hours, 24 hours, and 48 hours. After completion of exposure, cell count was performed, and intracellular proteins were extracted.
(§2) The medium was removed from the dish and washed thrice with ice-cooled PBS. The cells on the dish was collected by scraping with a rubber policeman. The thus-obtained cell suspension was transferred to a 1.5-mL microtube. The cell suspension was centrifuged at 4° C. and 1,200×g for 10 minutes, and the cells were recovered. After removal of the supernatant, a cell lysis buffer (9 mol/L urea, 2% CHAPS, 1 mM DTT, protease-inhibitor cocktail (Sigma)) was added in a volume of 200 μL with respect to 10,000,000 cells. The liquid was subjected to untrasonic treatment under cooling with ice. The thus-treated product was centrifuged at 4° C. and 16,000×g for 20 minutes, and the supernatant was quickly frozen with liquid nitrogen. The frozen product was stored at −80° C. before analysis. An aliquot of the supernatant was subjected to protein quantification (DC Protein Assay Kit, Bio-Rad).
(§3) The protein sample was mixed with a cell lysis buffer (excluding protease inhibitor), to thereby adjust the protein concentration to 2.5 mg/mL. The liquid was further mixed with a dilution/washing buffer (pH: 4.5, 50 mM sodium acetate buffer) (hereinafter referred to simply as “buffer”), to a protein concentration of 0.5 mg/mL. The thus-prepared sample (100 μL) was applied to spots of a cation-exchange ProteinChip array (CM10, Bio-Rad) which had been conditioned in advance with the same buffer. […]

For data set [4], the system named is DLD-1 cells. Briefly: SELDI-TOF MS intracellular protein expression after drug exposure, DLD-1. It is filed as cell-based, human. The method, then:
as §1, §2, §3

For data set [5] the following is noted: compared with CPT-11; cited from earlier work.

These results are taken from patent publication US9459254B2, “Method for determining sensitivity to an anticancer agent” (KEIO UNIVERSITY, priority 2009, dated 2016).

Take `O=c1[nH]cc(F)c(=O)[nH]1` [5-FU, Fluorouracil]: the cell viability entry in data set [1] (HCT116, 100 μM 5-FU, 48 hours) is “about 24%”; in data set [2] (DLD-1, 100 μM 5-FU, 48 hours), “about 49%”. Also, in data set [3], the “intracellular protein A level (m/z 16,450 to 16,620) after drug exposure” value is given as “protein level increase”. Further, in data set [4], the “intracellular protein A level after drug exposure” value is reported as “no significant difference”.
In the case of `CCc1c2c(nc3ccc(O)cc13)-c1cc3c(c(=O)n1C2)COC(=O)[C@]3(O)CC` [SN-38, 7-ethyl-10-hydroxycamptothecin], in data set [1] (HCT116, 100 nM SN-38, 72 hours), the cell viability result was “about 24%”. For the same compound, in data set [2] (DLD-1, 100 nM SN-38, 72 hours), the cell viability entry was “about 76%”. In addition, the “anti-tumor activity relative to that of CPT-11” value in data set [5] is listed as “about 100 times to some thousand times”. For the same compound, in data set [3], the “intracellular protein A level (m/z 16,450 to 16,620) after drug exposure” value is “protein level increase” and the “intracellular protein B level (m/z 22,080 to 22,310) after drug exposure” value is recorded as “protein level increase”. Moreover, in data set [4], the “intracellular protein A level after drug exposure” value is reported as “no significant difference” and the “intracellular protein B level after drug exposure” value is given as “no significant difference”.
